Results on 53 compounds are retold here after patent US20060135589A1, “1h-Indazole-3-carboxamide compounds as cyclin dependent kinase (cdk) inhibitors” (Astex Technology, Inc., priority 2002, published 2006).

A value given as a limit tells only on which side of the number the result lay.

Usually inhibition stands for the percentage by which the read-out fell short of the control. A higher inhibition goes with strong suppression.

The assay has as its target T1, CDK2/CyclinA (Homo sapiens, UniProt P24941).
T1 construct: purchased Upstate Biotechnology
Briefly: Measurement of CDK2 kinase inhibitory activity (IC50), 33P-ATP / histone H1 filter assay. The assay is classed as biochemical. The protocol:
Measurement of CDK2 Kinase Inhibitory Activity (IC50)
Compounds of the invention were tested for kinase inhibitory activity using the following protocol.
1.7 μl of active CDK2/CyclinA (Upstate Biotechnology, 10 U/μl) is diluted in assay buffer (250 μl of 10× strength assay buffer (200 mM MOPS pH 7.2, 250 mM β-glycerophosphate, 50 mM EDTA, 150 mM MgCl2), 11.27 μl 10 mM ATP, 2.5 μl 1M DTT, 25 μl 100 mM sodium orthovanadate, 708.53 μl H2O), and 10 μl mixed with 10 μl of histone substrate mix (60 μl bovine histone H1 (Upstate Biotechnology, 5 mg/ml), 940 μl H2O, 35 μCi γ^33P-ATP) and added to 96 well plates along with 5 μl of various dilutions of the test compound in DMSO (up to 2.5%). The reaction is allowed to proceed for 5 hours before being stopped with an excess of ortho-phosphoric acid (30 μl at 2%).
γ^33P-ATP which remains unincorporated into the histone H1 is separated from phosphorylated histone H1 on a Millipore MAPH filter plate. The wells of the MAPH plate are wetted with 0.5% orthophosphoric acid, and then the results of the reaction are filtered with a Millipore vacuum filtration unit through the wells. Following filtration, the residue is washed twice with 200 μl of 0.5% orthophosphoric acid. Once the filters have dried, 25 μl of Microscint 20 scintillant is added, and then counted on a Packard Topcount for 30 seconds.

Consider `O=C(Nc1cccc(-c2nnn[nH]2)c1)c1n[nH]c2ccccc12` [Example 4, N-[3-(1H-tetrazol-5-yl)phenyl]-1H-indazole-3-carboxamide], for which the inhibition at 50 µM is ≥ 50%.

Regarding `CC(=O)NCc1ccc(NC(=O)c2n[nH]c3ccccc23)cc1` [Example 5, N-[4-(acetylaminomethyl)phenyl]-1H-indazole-3-carboxamide], the inhibition at 50 µM is ≥ 50%.

With `O=C(Nc1ccc(N2CCCC2=O)cc1)c1n[nH]c2ccccc12` [Example 6, N-[4-(2-oxopyrrolidin-1-yl)phenyl]-1H-indazole-3-carboxamide], the inhibition at 50 µM is ≥ 50%.

`O=C(Nc1cccc(-c2cnco2)c1)c1n[nH]c2ccccc12` [Example 7, N-[3-(oxazol-5-yl)phenyl)-1H-indazole-3-carboxamide]: the inhibition at 50 µM is ≥ 50%.

Turning to `O=C(Nc1ccc(-c2c[nH]cn2)cc1)c1n[nH]c2ccccc12` [Example 8, N-[4-(1H-imidazol-4-yl)phenyl]-1H-indazole-3-carboxamide], the inhibition at 50 µM was ≥ 50%.

With `CS(=O)(=O)c1cccc(NC(=O)c2n[nH]c3ccccc23)c1` [Example 9, N-[3-methanesulphonylphenyl]-1H-indazole-3-carboxamide], the inhibition at 50 µM is ≥ 50%.

Consider `O=C(Nc1ccc(S(=O)(=O)N2CCOCC2)cc1)c1n[nH]c2ccccc12` [Example 10, N-[4-(morpholine-4-sulphonyl)phenyl]-1H-indazole-3-carboxamide], for which the inhibition at 50 µM was ≥ 50%.

With `O=C(Nc1ccccc1)c1n[nH]c2ccc(I)cc12` [Example 11, N-phenyl-5-iodo-1H-indazole-3-carboxamide], the inhibition at 50 µM is ≥ 50%.

In the case of `NS(=O)(=O)c1ccc(NC(=O)c2n[nH]c3ccc(I)cc23)cc1` [Example 12, N-(4-aminosulphonylphenyl)-5-iodo-1H-indazole-3-carboxamide], the inhibition at 50 µM is ≥ 50%.

Take `CNS(=O)(=O)Cc1ccc(NC(=O)c2n[nH]c3ccc(I)cc23)cc1` [Example 13]: the inhibition at 50 µM is ≥ 50%.

Consider `CS(=O)(=O)c1cccc(NC(=O)c2n[nH]c3ccc(I)cc23)c1` [Example 14, N-(3-methanesulphonylphenyl)-5-iodo-1H-indazole-3-carboxamide], for which the inhibition at 50 µM is ≥ 50%.

`CC(=O)NCc1ccc(NC(=O)c2n[nH]c3ccc(I)cc23)cc1` [Example 15, N-[4-(acetylaminomethyl)phenyl]-5-iodo-1H-indazole-3-carboxamide]: the inhibition at 50 µM is ≥ 50%.

Take `O=C(Nc1ccc([N+](=O)[O-])cn1)c1n[nH]c2ccc(I)cc12` [Example 16, N-(5-nitro-pyridin-2-yl)-5-Iodo-1H-indazole-3-carboxamide]: the inhibition at 50 µM was ≥ 50%.

As for `O=C(Nc1ccccc1)c1n[nH]c2ccc(N3CCOCC3)cc12` [Example 17, 5-Morpholin-4-yl-1H-indazole-3-carboxylic acid phenylamide], the inhibition at 50 µM was ≥ 50%.

As to `NS(=O)(=O)c1ccc(NC(=O)c2n[nH]c3ccc([N+](=O)[O-])cc23)cc1` [Example 18, 5-Nitro-1H-indazole-3-carboxylic acid (4-sulphamoyl-phenyl)-amide], the inhibition at 50 µM was ≥ 50%.

`CNS(=O)(=O)Cc1ccc(NC(=O)c2n[nH]c3ccc([N+](=O)[O-])cc23)cc1` [Example 19, 5-Nitro-1H-indazole-3-carboxylic acid (4-methylsulphamoylmethyl-phenyl)-amide]: the inhibition at 50 µM was ≥ 50%.

Regarding `CNS(=O)(=O)Cc1ccc(NC(=O)c2n[nH]c3ccc(-c4cccs4)cc23)cc1` [Example 21, 5-Thiophen-2-yl-1H-indazole-3-carboxylic acid (4-methylsulphamoylmethyl-phenyl)-amide], the inhibition at 50 µM is ≥ 50%.

With `CNS(=O)(=O)Cc1ccc(NC(=O)c2n[nH]c3ccc(-c4c(C)noc4C)cc23)cc1` [Example 22, 5-(3,5-Dimethyl-isoxazol-4-yl)-1H-indazole-3-carboxylic acid (4-methylsulphamoylmethyl-phenyl)-amide], the inhibition at 50 µM was ≥ 50%.

Consider `CNS(=O)(=O)Cc1ccc(NC(=O)c2n[nH]c3ccc(-c4ccco4)cc23)cc1` [Example 23, 5-Furan-2-yl-1H-indazole-3-carboxylic acid (4-methylsulphamoylmethyl-phenyl)-amide], for which the inhibition at 50 µM is ≥ 50%.

In the case of `CNS(=O)(=O)Cc1ccc(NC(=O)c2n[nH]c3ccc(-c4cc5ccccc5o4)cc23)cc1` [Example 24, 5-Benzofuran-2-yl-1H-indazole-3-carboxylic acid (4-methylsulphamoylmethyl-phenyl)-amide], the inhibition at 50 µM is ≥ 50%.

For `CNS(=O)(=O)Cc1ccc(NC(=O)c2n[nH]c3ccc(Cl)cc23)cc1` [Example 25, 5-Chloro-1H-indazole-3-carboxylic acid (4-methylsulphamoylmethyl-phenyl)-amide], the inhibition at 50 µM was ≥ 50%.

For `NS(=O)(=O)c1ccc(NC(=O)c2n[nH]c3ccccc23)cc1` [Example 26, 1H-Indazole-3-carboxylic acid (4-sulphamoyl-phenyl)-amide], the inhibition at 50 µM is ≥ 50%.

As for `O=C(Nc1ccccc1)c1n[nH]c2ccccc12` [Example 27], the inhibition at 50 µM is ≥ 50%.

In the case of `O=C(Nc1ccc(Cl)nc1)c1n[nH]c2ccccc12` [Example 28, 1H-Indazole-3-carboxylic acid (6-chloro-pyridin-3-yl)-amide], the inhibition at 50 µM was ≥ 50%.

Turning to `CNS(=O)(=O)Cc1ccc(NC(=O)c2n[nH]c3ccc(-c4nccs4)cc23)cc1` [Example 29, 5-Thiazol-2-yl-1H-indazole-3-carboxylic acid (4-methylsulphamoylmethyl-phenyl)-amide], the inhibition at 50 µM is ≥ 50%.

As for `O=C(Nc1ccc(S(=O)(=O)Nc2nccs2)cc1)c1n[nH]c2ccccc12` [Example 31], the inhibition at 50 µM is ≥ 50%.

`CNS(=O)(=O)Cc1ccc(NC(=O)c2n[nH]c3ccc(-c4ccccc4)cc23)cc1` [Example 32]: the inhibition at 50 µM is ≥ 50%.

Consider `CS(=O)(=O)NCc1ccc(NC(=O)c2n[nH]c3ccc([N+](=O)[O-])cc23)cc1` [Example 33], for which the inhibition at 50 µM was ≥ 50%.

With `CCOC(=O)N1CCC(NC(=O)c2n[nH]c3ccc([N+](=O)[O-])cc23)CC1` [Example 34], the inhibition at 50 µM is ≥ 50%.

As to `CCCCNC(=O)NS(=O)(=O)c1ccc(NC(=O)c2n[nH]c3ccccc23)cc1` [Example 35], the inhibition at 50 µM is ≥ 50%.

For `N=C(N)NS(=O)(=O)c1ccc(NC(=O)c2n[nH]c3ccccc23)cc1` [Example 36], the inhibition at 50 µM was ≥ 50%.

On to `O=C(NC1CCN(Cc2ccccc2)C1)c1n[nH]c2ccc(Cl)cc12` (centres unmarked) [Example 37], for which the inhibition at 50 µM is ≥ 50%.

`CCOC(=O)N1CCC(NC(=O)c2n[nH]c3ccc(Cl)cc23)CC1` [Example 38]: the inhibition at 50 µM is ≥ 50%.

`COc1ccc(NC(=O)c2n[nH]c3ccc(I)cc23)cn1` [Example 39]: the inhibition at 50 µM was ≥ 50%.

Take `O=C(Nc1cccnc1)c1n[nH]c2ccc(I)cc12` [Example 40]: the inhibition at 50 µM is ≥ 50%.

On to `O=C(Nc1cnc2ccccc2c1)c1n[nH]c2ccc(I)cc12` [Example 41], for which the inhibition at 50 µM was ≥ 50%.

Regarding `O=C(NC1CCOCC1)c1n[nH]c2ccc(Cl)cc12` [Example 42], the inhibition at 50 µM was ≥ 50%.

Regarding `CN1CCC(NC(=O)c2n[nH]c3ccc(Cl)cc23)CC1` [Example 43], the inhibition at 50 µM was ≥ 50%.

Take `O=C(Nc1cccnc1Cl)c1n[nH]c2ccc(I)cc12` [Example 44]: the inhibition at 50 µM was ≥ 50%.

For `O=C(NCc1ccccc1)c1n[nH]c2ccc(Cl)cc12` [Example 45], the inhibition at 50 µM was ≥ 50%.

Regarding `CN1CCN(c2ccc(CNC(=O)c3n[nH]c4ccc(Cl)cc34)cc2)CC1` [Example 46], the inhibition at 50 µM is ≥ 50%.

Take `O=C(Nc1cccnc1)c1n[nH]c2ccc(Cl)cc12` [Example 47]: the inhibition at 50 µM is ≥ 50%.

For `N#Cc1ccc(NC(=O)c2n[nH]c3ccc(I)cc23)cn1` [Example 48], the inhibition at 50 µM was ≥ 50%.

Turning to `O=C(Nc1ccccc1)c1n[nH]c2ccc(Cl)cc12` [Example 49], the inhibition at 50 µM was ≥ 50%.

For `Cc1ccc(NC(=O)c2n[nH]c3ccc(I)cc23)nn1` [Example 50], the inhibition at 50 µM is ≥ 50%.

Take `CCc1nnc(NC(=O)c2n[nH]c3ccc(Cl)cc23)s1` [Example 51]: the inhibition at 50 µM was ≥ 50%.

With `O=C(Nc1ccc(N2CCOCC2)cc1)c1n[nH]c2ccc(I)cc12` [Example 52], the inhibition at 50 µM was ≥ 50%.

With `O=C(Nc1ccc[nH]c1=O)c1n[nH]c2ccc(I)cc12` [Example 53], the inhibition at 50 µM is ≥ 50%.

Consider `O=C(Nc1ccc(N2CCOCC2)cc1)c1n[nH]c2ccccc12` [Example 54], for which the inhibition at 50 µM was ≥ 50%.

With `O=C(Nc1ccccc1)c1n[nH]c2ccc([N+](=O)[O-])cc12` [Example 55], the inhibition at 50 µM was ≥ 50%.

For the compound `O=C(Nc1ccc(Cl)nc1)c1n[nH]c2ccc(I)cc12` [Example 56], the inhibition at 50 µM was ≥ 50%.

On to `CC(C)(C)OC(=O)N1CCC(NC(=O)c2n[nH]c3ccccc23)CC1` [Example 57], for which the inhibition at 50 µM is ≥ 50%.

Regarding `O=C(Nc1ccc(F)cc1)c1n[nH]c2ccc(I)cc12` [Example 58], the inhibition at 50 µM is ≥ 50%.
